28 compounds from US20230382911A1 (Hoffmann-La Roche Inc., priority 2021, published 2023) can be followed below.

One may read the IC50 as the concentration that gives 50% inhibition.

Molecules are shown by their SMILES.

Sequence of Recombinant human Mat2a (P31153 whole entry): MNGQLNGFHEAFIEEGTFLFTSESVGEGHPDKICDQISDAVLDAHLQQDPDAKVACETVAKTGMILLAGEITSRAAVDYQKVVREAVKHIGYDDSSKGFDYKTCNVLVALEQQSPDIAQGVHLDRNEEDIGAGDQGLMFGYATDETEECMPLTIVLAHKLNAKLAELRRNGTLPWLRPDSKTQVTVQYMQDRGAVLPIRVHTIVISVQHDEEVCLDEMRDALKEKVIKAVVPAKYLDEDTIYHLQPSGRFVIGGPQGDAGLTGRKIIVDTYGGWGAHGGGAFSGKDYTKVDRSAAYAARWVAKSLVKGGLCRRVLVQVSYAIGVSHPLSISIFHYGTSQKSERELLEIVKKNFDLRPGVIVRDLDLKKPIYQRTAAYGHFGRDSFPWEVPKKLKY

The target in this assay is Recombinant human Mat2a (Homo sapiens (Human), UniProt P31153). In words: Determination of Mat2A activity: 384 well format absorbance-based Mat2A inhibition assay. Particulars: 12.5 nM Mat2A, 100 μM ATP and Methionine, 2% DMSO, 120 minutes at RT, Biomol Green, absorbance at 635 nm. In kind it is biochemical. As to the method:
Determination of Mat2A Activity
Measurement of Mat2A inhibition is performed in 384 well format absorbance-based assay.
Recombinant human Mat2a (12.5 nM) and serial diluted compounds in DMSO (range of concentrations from 10 μM to […]) or controls (DMSO) are incubated for 15 minutes at room temperature (RT) in assay buffer containing 50 mM HEPES pH 7.5, 50 mM KCl, 50 mM MgCl2, 0.01% Tween 20 and 10 mM DTT. The reaction is initiated by the addition of the combined substrates ATP and Methionine, each at a final concentration of 100 μM. Final assay condition are 12.5 nM Mat2A, 100 μM ATP and Methionine Substrates and 2% DMSO. After 120 minutes of incubation at RT, the reaction is stopped by the addition of Biomol Green. The absorbance signal is measured at λ=635 nm with a multiplate reader (BMG Pherastar reader or equivalent) after 30 min of equilibration at RT.
On to `Cc1ccccc1C(=O)n1nc(N)c2ccc([C@H]3C[C@@H]3C)nc21` (racemic) [Example 33, (3-amino-6-((1RS,2RS)-2-methylcyclopropyl)-1H-pyrazolo[3,4-b]pyridin-1-yl)(o-tolyl)methanone], for which the IC50 came out at 28 nM.

Regarding `COc1ccccc1C(=O)n1nc(N)c2ccc([C@H]3C[C@@H]3C)nc21` (racemic) [Example 34, (3-amino-6-((1RS,2RS)-2-methylcyclopropyl)-1H-pyridin-3-pyrazolo[3,4-b]pyridin-1-yl)(2-methoxyphenyl)methanone], the IC50 is 29 nM.

With `COc1ccccc1C(=O)n1nc(N)c2ccc([C@H]3C[C@@H]3F)nc21` (racemic) [Example 39, (3-amino-6-((1RS,2SR)-2-fluorocyclopropyl)-1H-pyrazolo[3,4-b]pyridin-1-yl)(2-methoxyphenyl)methanone], the IC50 turned out to be 64 nM.

As to `COc1ccccc1C(=O)n1nc(N)c2ccc([C@@H]3C[C@H]3C(F)(F)F)nc21` (racemic) [Example 42, [3-amino-6-[(1RS,2RS)-2-(trifluoromethyl)cyclopropyl]pyrazolo[3,4-b]pyridin-1-yl]-(2-methoxyphenyl)methanone], the IC50 is 200 nM.

In the case of `COc1ccccc1C(=O)n1nc(N)c2ccc(N3C[C@@H]4CC[C@H]3C4)nc21` (racemic) [Example 51, [3-amino-6-[(1RS,4SR)-3-azabicyclo[2.2.1]heptan-3-yl]pyrazolo[3,4-b]pyridin-1-yl]-(2-methoxyphenyl)methanone], the IC50 came out at 170 nM.

As for `C[C@H]1C(=O)NCC[C@H]1C(=O)n1nc(N)c2ccc(C3CC3)nc21` (racemic) [Example 59, (3RS,4RS)-4-(3-amino-6-cyclopropylpyrazolo[3,4-b]pyridine-1-carbonyl)-3-methylpiperidin-2-one], the IC50 is 33 nM.

Consider `C[C@H]1OCC[C@H]1C(=O)n1nc(N)c2ccc(C3CC3)nc21` (racemic) [Example 65, (3-amino-6-cyclopropyl-1H-pyrazolo[3,4-b]pyridin-1-yl)((2SR,3RS)-2-methyltetrahydrofuran-3-methyloxolane-2-yl)methanone], for which the IC50 is 36 nM.

As to `COc1ccccc1C(=O)n1nc(N)c2ccc(-c3ccccc3)nc21` [Example 1, (3-amino-6-phenyl-1H-pyrazolo[3,4-b]pyridin-1-yl)(2-methoxyphenyl)methanone], the IC50 amounted to 92 nM.

As for `COc1ccccc1C(=O)n1nc(N)c2ccc(CC(C)C)nc21` [Example 2, (3-amino-6-isobutyl-1H-pyrazolo[3,4-b]pyridin-1-yl)(2-methoxyphenyl)methanone], the IC50 came to 110 nM.

Regarding `COc1ccccc1C(=O)n1nc(N)c2ccc(N3CCCC3)nc21` [Example 3, (3-amino-6-(pyrrolidin-1-yl)-1H-pyrazolo[3,4-b]pyridin-1-yl)(2-methoxyphenyl)methanone], the IC50 worked out at 53 nM.

Consider `Nc1nn(C(=O)c2ccccc2Cl)c2nc(N3CCCC3)ccc12` [Example 4, (3-amino-6-(pyrrolidin-1-yl)-1H-pyrazolo[3,4-b]pyridin-1-yl)(2-chlorophenyl)methanone], for which the IC50 amounted to 140 nM.

For the compound `Cc1ccccc1C(=O)n1nc(N)c2ccc(N3CCCC3)nc21` [Example 5, (3-amino-6-(pyrrolidin-1-yl)-1H-pyrazolo[3,4-b]pyridin-1-yl)(o-tolyl)methanone], the IC50 amounted to 94 nM.

Turning to `COc1ccccc1C(=O)n1nc(N)c2ccc(C3=CCCCC3)nc21` [Example 6, [3-amino-6-(cyclohexen-1-yl)pyrazolo[3,4-b]pyridin-1-yl]-(2-methoxyphenyl)methanone], the IC50 is 110 nM.

As to `COc1ccccc1C(=O)n1nc(N)c2ccc(C3CC3)nc21` [Example 7, (3-amino-6-cyclopropylpyrazolo[3,4-b]pyridin-1-yl)-(2-methoxyphenyl)methanone], the IC50 is 120 nM.

Take `COc1ccccc1C(=O)n1nc(N)c2cc(Cl)c(C3CC3)nc21` [Example 8, (3-amino-5-chloro-6-cyclopropyl-1H-pyrazolo[3,4-b]pyridin-1-yl)(2-methoxyphenyl)methanone]: the IC50 amounted to 56 nM.

On to `Cc1ccccc1C(=O)n1nc(N)c2cc(Cl)c(C3CC3)nc21` [Example 9], for which the IC50 worked out at 390 nM.

`COc1ccccc1C(=O)n1nc(N)c2cc(F)c(-c3ccccc3)nc21` [Example 10, (3-amino-5-fluoro-6-phenyl-1H-pyrazolo[3,4-b]pyridin-1-yl)(2-methoxyphenyl)methanone]: the IC50 stood at 280 nM.

For the compound `Nc1nn(C(=O)c2ccccc2Cl)c2nc(N3CCCC3)c(F)cc12` [Example 12, (3-amino-5-fluoro-6-(pyrrolidin-1-yl)-1H-pyrazolo[3,4-b]pyridin-1-yl)(2-chlorophenyl)methanone], the IC50 was determined as 140 nM.

As to `Cc1ccccc1C(=O)n1nc(N)c2cc(F)c(N3CCCC3)nc21` [Example 13, (3-amino-5-fluoro-6-(pyrrolidin-1-yl)-1H-pyrazolo[3,4-b]pyridin-1-yl)(o-tolyl)methanone], the IC50 turned out to be 110 nM.

Regarding `COc1ccccc1C(=O)n1nc(N)c2cc(F)c(N3CC(F)(F)C3)nc21` [Example 14, (3-amino-6-(3,3-difluoroazetidin-1-yl)-5-fluoro-1H-pyrazolo[3,4-b]pyridin-1-yl)(2-methoxyphenyl)methanone], the IC50 is 95 nM.

In the case of `COc1ccccc1C(=O)n1nc(N)c2ccc(C(C)(C)C)nc21` [Example 15, (3-amino-6-(tert-butyl)-1H-pyrazolo[3,4-b]pyridin-1-yl)(2-methoxyphenyl)methanone], the IC50 is 99 nM.

`COc1ccccc1C(=O)n1nc(N)c2cnc(N3CCCC3)nc21` [Example 16, (3-amino-6-(pyrrolidin-1-yl)-1H-pyrazolo[3,4-d]pyrimidin-1-yl)(2-methoxyphenyl)methanone]: the IC50 was found to be 65 nM.

On to `Cc1ccccc1C(=O)n1nc(N)c2cnc(N3CCCC3)nc21` [Example 17, (3-amino-6-(pyrrolidin-1-yl)-1H-pyrazolo[3,4-d]pyrimidin-1-yl)(o-tolyl)methanone], for which the IC50 was 280 nM.

Take `Nc1nn(C(=O)c2ccccc2Cl)c2nc(N3CCCC3)ncc12` [Example 18, (3-amino-6-(pyrrolidin-1-yl)-1H-pyrazolo[3,4-d]pyrimidin-1-yl)(2-chlorophenyl)methanone]: the IC50 amounted to 350 nM.

As to `Nc1nn(C(=O)c2cccc3c2OCO3)c2nc(C3CC3)ccc12` [Example 19, (3-amino-6-cyclopropylpyrazolo[3,4-b]pyridin-1-yl)-(1,3-benzodioxol-4-yl)methanone], the IC50 worked out at 410 nM.

In the case of `Cc1ccccc1C(=O)n1nc(N)c2ccc(C3CC3)nc21` [Example 20, (3-amino-6-cyclopropylpyrazolo[3,4-b]pyridin-1-yl)-(2-methylphenyl)methanone], the IC50 came to 160 nM.

As to `COc1ccccc1C(=O)n1nc(N)c2cc3c(nc21)CC(C)(C)CC3` [Example 21, (3-amino-7,7-dimethyl-5,6,7,8-tetrahydro-1H-pyrazolo[3,4-b]quinolin-1-yl)(2-methoxyphenyl)methanone], the IC50 was 140 nM.

Consider `COc1ccccc1C(=O)n1nc(N)c2ccc(C3=CCCCO3)nc21` [Example 22, [3-amino-6-(3,4-dihydro-2H-pyran-6-yl)pyrazolo[3,4-b]pyridin-1-yl]-(2-methoxyphenyl)methanone], for which the IC50 was 440 nM.
